# In patent US20120115951A1, “PROTECTIVE ACTION OF SEROFENDIC ACID ON CARDIAC MUSCLE” (Eisai R & D Managment Co., Ltd, priority 2005, published 2012):
# How the values were obtained:
# [1] = system: neonatal rat cardiac myocytes; experiment: FACS analysis of ΔΨm in TMRE-loaded cells; format: cell-based; settings: for protection against ΔΨm loss in the presence of mitoKATP channel blocker 5HD: 100 μM drug plus 500 μM 5HD
# Description: (§1) Cardiac ventricular myocytes were prepared from 1-2-day-old Wister rats and cultured as previously described (Akao M, et al., Circ Res. 2001; 88:1267-75). In brief, the hearts were removed, and the ventricles were minced into small fragments, which were digested by trypsin dissociation. The dissociated cells were preplated for 1 hour to enrich the culture with myocytes. The non-adherent myocytes were then plated in plating medium consisting of Dulbecco's Modified Eagle Medium (DMEM) (Nacalai tesque; Kyoto, Japan) supplemented with 5% fetal calf serum, penicillin (100 U/ml), streptomycin ([…]), and 2 μg/ml vitamin B12. The final myocyte cultures contained >90% cardiac myocytes. The cells were maintained at 37° C. in the presence of 5% CO2 in a humidified incubator. Bromodeoxyuridine (0.1 mM) was incubated in the medium for the first 3 days after plating to inhibit fibroblast growth. Cultures were then placed in serum-free DMEM containing vitamin B12 and transferrin, 24 hours prior to the drug treatment.
# (§2) To monitor ΔΨm, cells were loaded with 100 nM tetramethylrhodamine ethyl ester (TMRE) (Molecular Probes) at 37° C. for 20 minutes. To monitor [Ca^2+]m, the cells were loaded with 2 μM […] (Molecular Probes) at 37° C. for 30 minutes. We assayed intracellular ROS production using chloromethyl-2,7-dichlorodihydrofluorescein diacetate (DCF) (Molecular Probes). Cells were loaded with 4 μM DCF at 37° C. for 30 minutes, and formation of the oxidized derivative was monitored by the increase of green fluorescence.
# For FACS analysis of ΔΨm, TMRE-loaded cells were harvested by trypsinization at the end of the experimental protocols, and analyzed using FACSAria (BD Biosciences; San Jose, Calif.) (20,000 cells/sample). The fluorescence intensity of TMRE was monitored at 582 nm (FL-2). The FACS data were analyzed using analysis software (WinMDI; http://facs/scripps.edu/software.html).
# C=Control cells; H=Cells exposed to 100 μM H2O2 for 1 hour; SFA=Cells pretreated with 100 μM SFA followed by 100 μM H2O2 for 1 hour. In all histograms, the position of the major population of cells in the control group is indicated by a vertical dashed line. […] Cells were pretreated with various concentrations of SFA followed by 100 μM H2O2 for 1 hour. C=Control cells. SFA preserved ΔΨm in a concentration-dependent manner
# FIG. 2c and FIG. 2d show the summarized data of the percentage of cells that maintain high (>200) TMRE fluorescence. The cells were pre-treated with various drugs shown in the figure and then treated with 100 μM H2O2 for 1 hour. DZ=100 μM diazoxide; 5HD=500 μM 5-hydroxydecanoate.
# [2] = system: isolated cardiac myocytes; settings: previously reported (Akao et al. 2001); cited from earlier work
# [3] = system: neonatal rat cardiac myocytes; experiment: TUNEL staining and DAPI staining of neonatal rat cardiac myocytes exposed to H2O2; format: cell-based
# Description: as §1, with “Cultures were then placed in serum-free DMEM containing vitamin B12 and transferrin, 24 hours prior to the drug treatment.” left out
# TUNEL staining was performed according to the manufacturer's protocol (Roche; Indianapolis, Ind.). Fluorescein labels incorporated in nucleotide polymers were detected with a fluorescence microscope (Axioskop 2 plus, Zeiss; Thornwood, N.Y.).
# Cells were stained with the DNA binding dye DAPI (5 μM, Molecular Probes; Eugene, Oreg.). The nuclear morphology of cells were visualized and photographed with the fluorescence microscope. […]
# [4] = system: neonatal rat cardiac myocytes; experiment: MTS assay of cell viability after H2O2; format: cell-based; settings: 100 μM SFA; H2O2 treatment 3 hours; P<0.01 vs H group
# Description: as §1, with “Bromodeoxyuridine (0.1 mM) was incubated in the medium for the first 3 days after plating to inhibit fibroblast growth. Cultures were then placed in serum-free DMEM containing vitamin B12 and transferrin, 24 hours prior to the drug treatment.” left out
# Cell viability was quantified based on metabolic activity using the MTS assay (Promega; Madison, Wis.). […] The quantity of formazan product is directly proportional to the number of living cells in culture (Zhang H M, et al., Circ Res. 2002; 90:1251-8).
# The cultures were incubated in serum-free medium containing 20 μl/well of the MTS tetrazolium compound for 3 hours at 37° C. The absorbance of formazan products was photometrically measured at 490 nm with a microplate reader, ARVOsx (PerkinElmer; Shelton, Wash.). Cell viability was expressed as the percentage of the absorbance measured in the control group. […]
# [5] = system: neonatal rat cardiac myocytes; experiment: Time-lapse confocal analysis of ΔΨm loss (TMRE fluorescence); format: cell-based
# Description: as §2
# (§3) Cells plated on 35 mm glass-bottom dishes were maintained at 37° C. in the presence of 5% CO2 using a heater platform installed on a microscope stage, and were placed in serum-free DMEM. After the desired temperature was reached, time-lapse confocal microscopy was started with 2 minute intervals, using a 20× objective lens. Images were taken with laser scanning confocal microscopy (Zeiss, LSM510). TMRE and rhod-2 AM were excited at 543 nm using a helium/neon laser. DCF was excited at 488 nm using an argon laser.
# (§4) Twenty-five cells were randomly selected in each scan, and the red or green fluorescence intensity was sequentially monitored.
# To further confirm the protective effect of SFA in preventing the loss of ΔΨm, the present inventors examined the time-dependent changes of ΔΨm on a single-cell basis (FIG. 3). Time-lapse confocal analysis of cardiac myocytes loaded with TMRE was performed at 2-minute intervals. Time-lapse scanning began immediately after the application of 50 μM H2O2.
# C=Control cells; H=Cells exposed to 100 μM H2O2 for 1 hour; SFA=Cells pretreated with 100 μM SFA followed by 100 μM H2O2 for 1 hour. Scale bars at 0 min frames: 20 μm.
# [6] = system: neonatal rat cardiac myocytes; experiment: Time-lapse confocal analysis of intracellular ROS production (DCF fluorescence); format: cell-based; settings: 100 μM SFA pretreatment; H2O2 for 30 min (50 μM, 100 μM elsewhere in the source)
# Description: as §2
# as §3, with “TMRE and rhod-2 AM were excited at 543 nm using a helium/neon laser. DCF was excited at 488 nm using an argon laser.” left out
# as §4
# ROS is one of the most important inducers of MPTP opening. To investigate whether the suppression of ROS production is associated with the protective effects of SFA, the present inventors assessed the change of DCF fluorescence by 50 μM H2O2 stimulation in each group using time-lapse confocal microscopy (FIG. 4). […]
# [7] = system: neonatal rat cardiac myocytes; experiment: Time-lapse confocal analysis of [Ca2+]m (rhod-2 fluorescence); format: cell-based; settings: 100 μM SFA pretreatment; H2O2 for 1 hour (50 μM, 100 μM elsewhere in the source)
# Description: as §2
# Cells plated on 35 mm glass-bottom dishes were maintained at 37° C. in the presence of 5% CO2 using a heater platform installed on a microscope stage, and were placed in serum-free DMEM. After the desired temperature was reached, time-lapse confocal microscopy was started with 2 minute intervals, using a 20× objective lens. […]
# as §4
# Calcium overload in mitochondrial matrix is one of the critical triggers of cell death and is also an important inducer of MPTP opening. To monitor the [Ca^2+]m level, the present inventors performed time-lapse confocal microscopy using the [Ca^2+]m sensitive dye, rhod-2, and observed the change of fluorescence due to 50 μM H2O2 stimulation in each group (FIG. 5). […]
# [8] = Blood pressure measurement after femoral vein administration; format: in vivo, Sprague-Dawley male rats; settings: 10 mg/kg into femoral vein; monitored until 10 minutes after administration; anesthetized rats
# Description: The distal end of the common carotid artery of 8-week-old Sprague-Dawley male rats (about 250 g) was ligated under the effect of pentobarbital anesthetic. Then, to the proximate end thereof, a polyethylene tube filled with heparin-containing saline and connected to a pressure converter was inserted. Changes in blood pressure were recorded by a pen recorder.
# A 24-gauge injection needle connected to a syringe via the tube was inserted into the femoral vein, and the liquid drug was injected over 1 to 2 minutes. The blood pressure was monitored from before the liquid drug administration until 10 minutes after the administration.
# Serofendic acid was dissolved in Meylon (7% NaHCO3) at a concentration of 4 mg/mL. The blood pressure of each individual rat was measured after only the solvent was administered. Then, 10 mg/kg of serofendic acid was administered. The average of the blood pressure for 3 minutes before the administration of each of SFA and Meylon was set as 100%.
# [9] = system: cultured cortical and striatal neurons; settings: in vitro; cited from earlier work
# [10] = electron spin resonance analysis; cited from earlier work
# [11] = 25 randomly selected cells, 100 μM SFA, H2O2
smiles,measurement,setting,value
"CC1=NS(=O)(=O)c2cc(Cl)ccc2N1 [diazoxide, reference compound]",protection against ΔΨm loss in the presence of mitoKATP channel blocker 5HD,[1]; 100 μM H2O2,completely blocked
same,loss of ΔΨm induced by oxidative stress,[2],prevents the loss of ΔΨm induced by oxidative stress in a concentration-dependent manner
"CCCCCC(O)CCCC(=O)O (centres unmarked) [5HD, 5-hydroxydecanoate, reference compound]",effect of 5HD alone on the loss of ΔΨm elicited by H2O2,"[1]; 500 μM 5HD, 100 μM H2O2",did not aggravate the loss of ΔΨn
"C[S+]([O-])CC1C2CCC3(CCC4C(C)(C(=O)O)CCCC4(C)C3C2)C1O (single isomer, unassigned; ent-15) [SFA, ent-15β-hydroxy-17-methylsulfinyl-16α-atisan-19-oic acid]",nuclear morphology (DAPI staining),"[3]; 100 μM SFA, 100 μM H2O2 for 16 hours",significant protective effect in the preservation of nuclear morphology
same,TUNEL-positive nuclei,"[3]; pretreated with 100 μM SFA followed by 100 μM H2O2 for 16 hours, compared with H2O2 group",obviously fewer TUNEL-positive nuclei
same,cellular viability evaluated by MTS assay,[4],partly but significantly protected against H2O2-induced cytotoxicity
same,concentration at which the ΔΨm-preserving effect reached its maximum level,[1]; 100 μM H2O2 for 1 hour,100 µM
same,"protective effect in preventing the loss of ΔΨm, versus diazoxide","[1]; 100 μM SFA vs 100 μM diazoxide, 100 μM H2O2 for 1 hour",comparable to 100 μM diazoxide
same,effect of co-application with diazoxide on ΔΨm preservation,"[1]; 100 μM diazoxide and 100 μM SFA vs SFA alone, 100 μM H2O2",did not exhibit an additive effect
same,protection against ΔΨm loss in the presence of mitoKATP channel blocker 5HD,[1]; 100 μM H2O2,completely blocked
same,effect on control level of ΔΨm,[1]; SFA alone in the absence of H2O2,did not affect the control level of ΔΨm
same,loss of ΔΨm (percentage of cells that maintain high (>200) TMRE fluorescence),[1]; various concentrations of SFA followed by 100 μM H2O2 for 1 hour,prevented the loss of ΔΨm in a concentration-dependent manner
same,TMRE fluorescence over 60 minutes (time-lapse),"[5]; 100 μM SFA pretreatment, H2O2 (50 μM, 100 μM elsewhere in the source)",remarkably preserved
same,number of cells undergoing the dissipation of ΔΨm,[5]; [11],decreased the number of cells undergoing the dissipation of ΔΨm
same,onset of ΔΨm loss,[5]; [11],delayed the onset of ΔΨm loss
same,DCF fluorescence (intracellular ROS),[6],suppressed the increase in DCF fluorescence
same,rhod-2 fluorescence ([Ca2+]m overload),[7],partly attenuated the [Ca^2+]m overload
same,change in average blood pressure,[8],no significant change in average blood pressure was observed
same,"protection of neurons against glutamate, nitric oxide, and H2O2 cytotoxicity",[9],exhibited the ability to protect cultured cortical and striatal neurons
same,hydroxyl radical-scavenging activity,[10],exhibits hydroxyl radical-scavenging activity
